Reference: the supplement of paper PMC10307832

Experiments:
Experiment in all cases: relative viability (nuclei count vs DMSO), 5 days (fraction); higher = more cells survive
Bicalutamide + OSI-027 = compound: CC(O)(CS(=O)(=O)c1ccc(F)cc1)C(=O)Nc1ccc(C#N)c(C(F)(F)F)c1 [Bicalutamide] + COc1cccc2cc(-c3nc([C@H]4CC[C@H](C(=O)O)CC4)n4ncnc(N)c34)[nH]c12 [OSI-027] (partner 0.5 µM)
Outline: (§1)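 Lung cancer cell lines in 1536-well plates were dosed by pin tool the day after seeding, either with one drug alone or with a fixed anchor-drug dose plus five library-drug doses (not always all listed) in √10 steps. After 5 days, cells were fixed and their nuclei stained in one step (final 0.05% Triton X-100, 1% formaldehyde, 1 ug/ml Hoechst), then counted on 4× images. Relative viability is the nuclei count in treated wells divided by that in vehicle wells. Values are medians of duplicate plates.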

[1] = compound: CC(O)(CS(=O)(=O)c1ccc(F)cc1)C(=O)Nc1ccc(C#N)c(C(F)(F)F)c1 [Bicalutamide] + C[C@]1(O)C[C@@H](c2nc(-c3ccc4ccc(-c5ccccc5)nc4c3)c3c(N)nccn32)C1 [Linsitinib] (partner 1 µM)
Outline: as §1

Bicalutamide + Alpelisib = compound: CC(O)(CS(=O)(=O)c1ccc(F)cc1)C(=O)Nc1ccc(C#N)c(C(F)(F)F)c1 [Bicalutamide] + Cc1nc(NC(=O)N2CCC[C@H]2C(N)=O)sc1-c1ccnc(C(C)(C)C(F)(F)F)c1 [Alpelisib] (partner 2 µM)
Outline: as §1

[2] = compound: CC(O)(CS(=O)(=O)c1ccc(F)cc1)C(=O)Nc1ccc(C#N)c(C(F)(F)F)c1 [Bicalutamide] + O=C(CCCCCCC(=O)Nc1ccccc1)NO [Vorinostat] (partner 1 µM)
Outline: as §1

Cell Line	relative viability (Bicalutamide + OSI-027; first compound 0.08 µM)	relative viability (Bicalutamide + OSI-027; first compound 0.253 µM)	relative viability (Bicalutamide + OSI-027; first compound 0.8 µM)	relative viability (Bicalutamide + OSI-027; first compound 2.53 µM)	relative viability ([1]; first compound 0.08 µM)	relative viability ([1]; first compound 0.253 µM)	relative viability ([1]; first compound 0.8 µM)	relative viability ([1]; first compound 2.53 µM)	relative viability (Bicalutamide + Alpelisib; first compound 0.08 µM)	relative viability (Bicalutamide + Alpelisib; first compound 0.253 µM)	relative viability (Bicalutamide + Alpelisib; first compound 0.8 µM)	relative viability (Bicalutamide + Alpelisib; first compound 2.53 µM)	relative viability ([2]; first compound 0.08 µM)	relative viability ([2]; first compound 0.253 µM)	relative viability ([2]; first compound 0.8 µM)	relative viability ([2]; first compound 2.53 µM)
HCC-44	0.723	0.403	0.66	0.477	0.67	0.664	0.691	0.788	0.848	0.764	0.902	0.794	1.12	1.21	1.1	1.12
NCI-H647	0.543	0.628	0.79	0.585	1.2	1.17	1.48	0.955	1.32	1.33	1.47	0.858	0.474	0.655	0.575	0.435
H3255	0.525	0.591		0.498	0.949	0.848	1.08	0.867	0.697	0.618	1.14	0.649	0.808	0.755	0.969	0.69
NCI-H650	0.559	0.507	0.524	0.432	0.906	1.07	1.1	0.489	1.34	1.04	1.35	0.814	0.449	0.518	0.513	0.367
NCI-H2085	0.832	0.642	0.788	0.628	0.856	1.04	0.938	0.794	0.895	1.04	0.958	0.879	0.829	0.741	0.816	0.687
NCI-H2347	0.395	0.327	0.515	0.427	1.1	0.944	1.02	0.934	1.09	1.09	1.12	0.971	0.574	0.587	0.709	0.581
NCI-H1944	0.476	0.292	0.442	0.389	1.07	1.15	1.27	1.14	0.852	0.737	0.869	0.851	0.54	0.516	0.593	0.438
NCI-H1793	0.278	0.238	0.302	0.269	0.731	0.568	0.894	0.686	0.763	0.636	0.827	0.687	0.869		0.996	0.566
NCI-H596	0.854	0.659	0.845	0.763	1.09	0.968	1.25	1.14	0.521	0.493	0.588	0.568	0.679	0.571	0.66	0.648
NCI-H520	0.237	0.228	0.373	0.251	0.941	0.875	1.12	0.815	1.08	0.945	1.1	0.808	0.831	0.728	0.881	0.596
EKVX	0.747	0.631	0.739	0.718	1.06	1.04	1.06	0.894	0.846	0.827	1.01	0.829	0.814	0.656	0.711	0.713
NCI-H358	0.903	0.651	1.01	0.67	0.763	0.65	0.841	0.786	0.808	0.904	0.936	0.992	0.804	0.604	0.662	0.544
EPLC-272H	0.314	0.34	0.325	0.243	1.17	1.13	1.33	1.16	1.05	1.03	0.951	0.809	0.437	0.401	0.573	0.479
NCI-H1395	0.781	0.538	0.76	0.454	1.22	1.03	1.09	1	0.94	1.04	1.34	0.928	0.882	0.666	0.792	0.624
NCI-H2228	0.517	0.756	0.811	0.603	0.627	0.573	0.824	0.957	0.779	0.805	0.908	0.58	0.584	0.795	0.993	0.581
LXF-289	0.816	0.725	0.851	0.672	0.962	0.92	1	0.972	1.04	0.952	1.08	1.03	0.818	0.734	0.797	0.698
NCI-H2023	0.44	0.338	0.427	0.271	0.721	0.723	0.597	0.715	0.593	0.59	0.555	0.608	0.69	0.608	0.893	0.349

Cell Line	relative viability (Bicalutamide + OSI-027; first compound 0.08 µM)	relative viability (Bicalutamide + OSI-027; first compound 0.253 µM)	relative viability (Bicalutamide + OSI-027; first compound 0.8 µM)	relative viability (Bicalutamide + OSI-027; first compound 2.53 µM)	relative viability ([1]; first compound 0.08 µM)	relative viability ([1]; first compound 0.253 µM)	relative viability ([1]; first compound 0.8 µM)	relative viability ([1]; first compound 2.53 µM)	relative viability (Bicalutamide + Alpelisib; first compound 0.08 µM)	relative viability (Bicalutamide + Alpelisib; first compound 0.253 µM)	relative viability (Bicalutamide + Alpelisib; first compound 0.8 µM)	relative viability (Bicalutamide + Alpelisib; first compound 2.53 µM)	relative viability ([2]; first compound 0.08 µM)	relative viability ([2]; first compound 0.253 µM)	relative viability ([2]; first compound 0.8 µM)	relative viability ([2]; first compound 2.53 µM)
NCI-H3122	0.951	0.905	1.25	0.881	1.01	1.04	1.04	1.07	0.707	0.92	0.821	0.767	1.01	0.946	1.07	0.887
NCI-H1755	0.768	0.687	0.82	0.524	0.99	0.988	1.02	0.958	0.914	0.903	0.992	0.853	0.727	0.748	0.916	0.635
HCC-78	0.381	0.371	0.43	0.352	0.585	0.462	0.599	0.445	0.288	0.327	0.452	0.253	0.489	0.436	0.462	0.447
LOU-NH91	0.768	0.659	0.736	0.726	0.921	0.778	0.96	1.01	0.698	0.608	0.828	0.745	0.985	0.723	0.971	0.893
NCI-H322M	0.6	0.524	0.568	0.474	0.94	0.976	1.02	1.04	0.948	0.772	0.882	0.74	0.858	0.898	0.995	1.11
HCC-827	0.795	0.697	0.86	0.751	0.945	0.896	0.993	0.964	0.965	0.79	1.03	0.958	0.921	0.639	1.15	0.815
SW 1573	0.629		0.734	0.656	0.834	0.647	0.887	0.647	0.678	0.639	0.831	0.689	1.26	0.586	1.12	0.652
NCI-H1975	0.741	0.642	0.746	0.633	0.947	0.917	1.1	0.656	0.642	0.615	0.795	0.526	0.73	0.742	0.703	0.557
NCI-H1651	0.654	0.562	0.856	0.694	0.966	0.903	1.1	0.913	0.956	0.947	1.17	0.944	0.577	0.514	0.662	0.567
NCI-H460	0.772	0.601	1.04	0.545	0.854	0.556	0.986	0.672	0.52	0.429	0.685	0.506	0.763	0.439	0.92	0.779
LCLC-103H	0.464	0.425	0.476	0.451	1.04	1.04	1.14	1.05	1.04	0.907	1.1	1.02	0.791	0.679	0.914	0.744
LCLC-97TM1	0.598	0.37	0.627	0.422	0.185	0.188	0.199	0.185	0.254	0.231	0.286	0.226	0.728	0.644	0.972	0.54
NCI-H838	0.435	0.333	0.449	0.36	0.962	1	1	0.827	0.984	0.909	0.984	0.945	0.72	0.707	0.749	0.564
NCI-H1355	0.433	0.367	0.464	0.4	0.781	0.782	0.957	0.805	0.816	0.793	0.924	0.853	0.679	0.596	0.691	0.609
HOP-62	0.927	0.844	0.956	0.785	0.89	0.903	0.963	1.02	1.31	0.959	1.19	1.12	0.783	0.606	0.689	0.52
NCI-H2087	0.598	0.512	0.579	0.572	1.03	1.07	0.95	0.77	1.22	0.843	1.16	1.13	0.668	0.643	0.812	0.856
